According to patent publication US10081609B2, “Compounds for inducing proliferation and differentiation of cells, and methods of use thereof” (The Broad Institute, Inc., priority 2013, dated 2018):
≈ marks a conversion by molar mass, not a printed value. Where “and” joins values, the source holds several entries; their conditions need not be identical. Equal entries are not always repeated. Where two headings read alike, the source gives them in different places.

Key:
[1] = Solubility in PBS with 1% DMSO; assay type: physicochemical
Method: (§1) Selected compounds of the invention were evaluated for physico-chemical properties, including solubility, microsomal stability, protein binding and plasma stability (Table 2).
(§2) Selected compounds of the invention were evaluated for physico-chemical properties, including solubility, microsomal stability, protein binding and plasma stability (Table 3).

[2] = Microsomal stability - Human; assay type: in vitro ADME; conditions: for Microsomal stability No NADPH: non-enzymatic microsomal mechanisms only; for Microsomal stability Average: enzymatic and non-enzymatic microsomal mechanisms
Method: as §1, §2

Plasma stability - Human = assay type: in vitro ADME
Method: as §1, §2

Protein binding - Human = assay type: in vitro ADME
Method: as §1, §2

[3] = tested on: iPS-derived endothelial cells; test: Differentiation of iPS-derived endothelial cells (nitric oxide); assay type: cell-based
Method: Cells were assayed for nitric oxide (NO), a mature marker for endothelial cells. CB=FPH2, M=FH1, E=PH1, while Null and DMSO are control runs with no additive and vehicle only, respectively.

[4] = tested on: lfabp:GFP zebrafish embryos; test: Therapeutic window after a non-fatal dose of APAP in zebrafish embryos (liver size); assay type: in vivo; conditions: 5 mM APAP for 24 hrs before 24 hour treatment
Method: The current clinical treatment for APAP toxicity is the administration of NAC, which has a limited window of efficacy. To examine the therapeutic window of FH1 and PH1 efficacy, lfabp:GFP zebrafish embryos were allowed to develop normally for 48 hrs post fertilization, and then exposed to a non-fatal dose of 5 mM APAP for 24 hrs before initiation of treatment with FH1 or PH1 for an additional 24 hour period (FIG. 10A).

[5] = tested on: transgenic lfabp:GFP zebrafish; test: Liver development in transgenic lfabp:GFP zebrafish embryos; assay type: in vivo; conditions: exposure 24 to 72 hrs post fertilization
From the text: The effects of FH1 and PH1 on liver development were examined in transgenic lfabp:GFP zebrafish, in which GFP expression is restricted to the liver. Zebrafish embryos were allowed to develop normally for 24 hrs post fertilization and then exposed to either FH1 or PH1 until 72 hrs post fertilization (FIG. 8A). Livers were visualized by whole-mount fluorescence imaging (FIG. 8B) and lfabp in situ hybridization (FIG. 8C).

iHeps = test: Differentiation and maturation of iHeps (albumin/AFP ELISA, staining, CYP3A4 activity); assay type: cell-based, human
Method: Undifferentiated iPS cells were cultured on Matrigel, supported by primary mouse embryonic fibroblasts. Once confluent, iPS cells were transitioned to differentiation media, with sequential addition of growth factors (Activin A, BMP-4, bFGF, HGF, and OSM) to guide differentiation, first into endoderm, then into hepatic progenitor cells and finally into iHeps. Compound treatment started on day 21 post initiation of differentiation and acted over a period of 9 days.
Consistent with the literature, untreated cultures had islands that double stain for albumin and the fetal marker AFP, with very little presence of the mature marker […].
The ability of compounds 201-212, 217 and 244-258 to affect the differentiation of iHeps was also tested.

[6] = tested on: human primary hepatocytes; test: Expansion of compound-treated human primary hepatocytes (cell counts, Ki67 staining); assay type: cell-based; conditions: FIG. 11A
Method: The metabolic phenotype of the treated hepatocytes was assessed for canalicular transport. […] Gene expression profiling confirmed that there was no significant differences between FPH-treated and untreated hepatocytes (FIG. 11D).
The ability of compounds 201-212, 215, 217 and 244-258 to expand human primary hepatocytes in vitro was also tested.

[7] = tested on: human primary hepatocytes; test: High-throughput liver platform, primary screening: hepatocyte proliferation by automated high-content imaging (hepatocyte nuclei numbers); assay type: cell-based; conditions: for hit class in the high-throughput liver platform: human primary hepatocytes
Method: In order to avoid species-specific differences and cell line mutations, the screen was conducted with human primary hepatocytes. Traditionally, chemical screening on such cells has been hindered by their availability in large quantities as well as their rapid loss of viability and phenotype in vitro. Recent advances in cryopreservation technologies allowed enough primary human cells to be stored for screening; these cells are maintained through co-cultivation with non-parenchymal cells. Co-cultures of primary human hepatocytes with murine embryonic J2-3T3 fibroblasts were recently shown to maintain normal hepatocyte phenotype for weeks. These in vitro platforms consisted of hepatocytes surrounded by a co-planar population of fibroblasts. While sufficient for stabilizing hepatocyte functions in vitro, such platforms may limit normal hepatocyte expansion due to contact inhibition. Thus, for this screen, a sparse population of hepatocytes was co-cultivated on top of a confluent feeder layer of J2-3T3 fibroblasts within 384-well plates (FIG. 1A top). This screening platform stabilized hepatocyte phenotypic functions in vitro (FIG. 1A bottom) and was compatible with two separate high-throughput readouts developed for this screen.
The primary readout detected hepatocyte proliferation via automated high-content imaging. This assay quantified hepatocyte nuclei numbers, using nuclear morphologies to separate the hepatocyte and fibroblast subpopulations that co-exist within the screening platform. When visualized with Hoechst stain, hepatocyte nuclei were smaller and more uniform in texture while fibroblast nuclei were larger and punctated (FIG. 1A bottom). Leveraging this distinction, automated image analyses was developed that utilized machine learning algorithms to classify nuclei types and tabulate hepatocyte nuclei numbers. […] Besides quantifying hepatocyte nuclei that have completed mitosis, the number of nuclei in the process of mitosis were also quantified. Two additional analysis pipelines were built to detect nuclear morphologies consistent with cells undergoing metaphase and anaphase.
FIG. 1B top summarizes the workflow of the screen. Primary screening was done on human primary hepatocytes, preconditioned for seven days by non-parenchymal cells in the screening platform. Upon stabilization in vitro, cultures were treated with the chemical library for 48 hours. All compounds were tested in duplicates, at a single concentration of 15 μM. This single concentration was selected via a pilot screen of ˜2,000 small molecules. All 12,480 small molecules were initially tested on a single donor of cryopreserved hepatocytes (donor a) in order to eliminate noise from donor-to-donor variability. Following compound treatment, media supernatants were collected for functional analyses via ELISA and cultures were fixed in 4% paraformaldehyde for proliferation analyses via imaging.
To identify proliferation hits, three image-based readouts—one each to quantify the number of (1) hepatocyte nuclei in interphase, (2) nuclei in metaphase and (3) nuclei in anaphase—were integrated. z Scores were converted into p values, which were then used to generate ranked lists of compounds based on the efficacy and consistency of effects across the different proliferation readouts. Efficacy was assessed by the product of p values (pprod=pinter×pmeta×pana); consistency was evaluated by the maximum of p values (pmax=max(pinter, pmeta, pana). Compounds were considered proliferation hits if pprod<1×10^−6 and pmax<0.25. Functional hits were selected by an ELISA […]. Compounds with ELISA z>3.0 were eliminated as toxic. 93 compounds met all hit selection criteria, qualifying as Functional Proliferation Hits (FPH); FIG. 1B bottom illustrates the types of compounds that constituted this set of hits.

[8] = aqueous buffer, kinetic from dmso stock, read-out: Solubility Average
[9] = aqueous buffer, kinetic from dmso stock, read-out: Solubility Rep1
[10] = aqueous buffer, kinetic from dmso stock, read-out: Solubility Rep2
[11] = aqueous buffer, kinetic from dmso stock, read-out: Solubility Rep3

SMILES | solubility [1, 8] | solubility [1, 9] | solubility [1, 10] | solubility [1, 11] | Microsomal stability Rep1 [2] | Microsomal stability Rep2 [2] | Microsomal stability No NADPH [2] | Microsomal stability Average [2] | Plasma stability Average (Plasma stability - Human) | Protein binding Average (Protein binding - Human) | Protein binding Rep1 (Protein binding - Human) | Protein binding Rep2 (Protein binding - Human) | other results
CCCCOc1cc(CC2CNC(=O)N2)ccc1OC (stereo not drawn) [PH1, 4-(3-butoxy-4-methoxybenzyl)imidazolidin-2-one] |  |  |  |  |  |  |  |  |  |  |  |  | differentiation of iPS-derived endothelial cells (nitric oxide) [3]: induce differentiation; embryonic liver size / liver mass after APAP compared to controls [4]: mitigated APAP-induced loss of liver mass; liver size compared to DMSO-treated controls [5]: increased
CC(=O)Nc1ccc(Cc2ccc(NC(C)=O)cc2)cc1 [BRD-K44777625-001-01-9] | 40 µM (≈ 11.3 µg/mL) | 45 µM (≈ 12.7 µg/mL) | 39 µM (≈ 11 µg/mL) | 36 µM (≈ 10.2 µg/mL) | 71 % remaining | 66.7 % remaining | 63 % remaining | 68.9 % remaining | 100.6 % remaining | 91.0 % bound | 91.0 % bound | 91.0 % bound | 
CSc1ccccc1NC(=O)CN(c1cc(Cl)ccc1C)S(C)(=O)=O [Compound 102, 2-(N-(5-chloro-2-methylphenyl)methylsulfonamido)-N-(2-(methylthio)phenyl)acetamide] |  |  |  |  |  |  |  |  |  |  |  |  | proliferation Z score (hepatocyte nuclei count) [7]: 2.24; hit class in the high-throughput liver platform [7]: proliferation-only hit
CCCCC[C@H](O)/C=C/[C@H]1[C@H](O)CC(=O)[C@@H]1C/C=C\CCCC(=O)O [PGE2, Prostaglandin E2, reference compound] |  |  |  |  |  |  |  |  |  |  |  |  | hit class in the high-throughput liver platform [7]: FPH
CCCCOc1cc(CC2CNC(=O)N2)ccc1OC (stereo not drawn) [BRD-A07207424-001-04-1] | > 100 µM | 112 µM (≈ 31.2 µg/mL) | 114 µM (≈ 31.7 µg/mL) | 104 µM (≈ 28.9 µg/mL) | 81.5 % remaining | 85.5 % remaining | 100.3 % remaining | 83.5 % remaining | 105.9 % remaining | 75.6 % bound | 76.2 % bound | 75.0 % bound | 

Now from value to compound, other results behind:

solubility [1, 8] | solubility [1, 9] | solubility [1, 10] | solubility [1, 11] | Microsomal stability Rep1 [2] | Microsomal stability Rep2 [2] | Microsomal stability No NADPH [2] | Microsomal stability Average [2] | Plasma stability Average (Plasma stability - Human) | Protein binding Average (Protein binding - Human) | Protein binding Rep1 (Protein binding - Human) | Protein binding Rep2 (Protein binding - Human) | SMILES | other results
23 µM (≈ 9.68 µg/mL) | 23 µM (≈ 9.68 µg/mL) | 22 µM (≈ 9.26 µg/mL) | 26 µM (≈ 10.9 µg/mL) | 4.2 % remaining | 4.5 % remaining | 110.6 % remaining | 4.4 % remaining | 101.4 % remaining | 91.2 % bound | 90.9 % bound | 91.6 % bound | Cc1ccc(Cl)cc1N(CC(=O)N(S)c1c(F)cccc1F)S(C)(=O)=O [BRD-K61250484-001-01-5] | 
25 µM (≈ 13.7 µg/mL) | 23 µM (≈ 12.6 µg/mL) | 28 µM (≈ 15.3 µg/mL) | 24 µM (≈ 13.1 µg/mL) | 53.9 % remaining | 58.1 % remaining | 104.2 % remaining | 56.0 % remaining | 98.0 % remaining | 99.3 % bound | 99.3 % bound | 99.3 % bound | C[C@H](CO)N1C[C@H](C)[C@H](CN(C)C(=O)Nc2ccc(F)cc2)Oc2ncc(-c3cc4ccccc4o3)cc2C1=O [Compound 106, 1-(((2R,3S)-8-(benzofuran-2-yl)-5-((R)-1-hydroxypropan-2-yl)-3-methyl-6-oxo-3,4,5,6-tetrahydro-2H-pyrido[2,3-b][1,5]oxazocin-2-yl)methyl)-3-(4-fluorophenyl)-1-methylurea] | albumin staining (immunofluorescent) (iHeps): dramatic increases; hepatocyte phenotype of treated iHeps (iHeps): more mature hepatocyte phenotypes; AFP secretion (ELISA) (iHeps; treatment from day 21, 9 days): decreased; albumin secretion (ELISA) (iHeps; treatment from day 21, 9 days): increased; proliferation of hepatocytes [6]: induced proliferation
 |  |  |  |  |  |  |  | 0.5 % remaining and 0.4 % remaining |  |  |  | CC1CC(OC(=O)C(O)c2ccccc2)CC(C)(C)N1C (stereo not drawn) [Eucatropine, reference compound] | 
20 µM (≈ 7.08 µg/mL) | 23 µM (≈ 8.14 µg/mL) | 16 µM (≈ 5.66 µg/mL) | 21 µM (≈ 7.43 µg/mL) | 41.7 % remaining | 39.4 % remaining | 123.1 % remaining | 40.6 % remaining | 63.9 % remaining | 95.8 % bound | 95.7 % bound | 95.9 % bound | CCn1cc(NC(=S)Nc2cc(Cl)ccc2OC)c(C(N)=O)n1 [BRD-K94248251] | 
2.2 µM (≈ 0.759 µg/mL) |  | 1.9 µM (≈ 0.655 µg/mL) | 3.1 µM (≈ 1.07 µg/mL) |  |  |  |  |  |  |  |  | Clc1ccccc1C(c1ccccc1)(c1ccccc1)n1ccnc1 [Clotrimazole, reference compound] | solubility ([1]; read-out: Solubility Average): 2.6 µM (≈ 0.897 µg/mL); solubility ([1]; read-out: Solubility Rep2): 2.1 µM (≈ 0.724 µg/mL); solubility ([1]; read-out: Solubility Rep3): 2.0 µM (≈ 0.69 µg/mL)
